In the METLIN SMRT retention time set (Domingo-Almenara et al. 2019):

Assay: gradient 5% acetonitrile 3 min, to 50% in 2 min, to 85% in 15 min, held 3 min, 100 µL/min
Settings: column: Zorbax Extend-C18 2.1 x 50 mm; eluents: water / acetonitrile, 0.1% formic acid
Procedure, shortened: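 Retention times come from adduct peaks that were picked computationally and then checked by hand. The standards, pure and pooled in mixtures of ~100 molecules, were run on a Zorbax Extend-C18 column (2.1 × 50 mm, 1.8 μm) at 100 μL/min with water and acetonitrile, each with 0.1% formic acid. Detection was by quadrupole time-of-flight mass spectrometry in positive and negative ionization mode, with a dead volume of 40 μL and a dwell volume of 900 μL.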

Structure (SMILES) | RP-LC retention time [s]
Cc1cccc(CNc2nnc(-c3nc(C4CC4)no3)c3ccccc23)c1 | 938
COc1ccc(NC(=O)Cn2c(C)cc(-c3nnc(C4CCC4)o3)c2C)cc1OC | 796
Cc1ccc(NC(=O)Nc2ccc(NC(=O)N3CCCC(C(=O)NCC4CC4)C3)cc2)cc1 (stereo not given) | 779
O=C(CCn1nnc2cc(-c3noc(-c4ccc(Br)o4)n3)ccc21)N1CCOCC1 | 822
O=C(NCc1ccccc1Br)c1cn2c(n1)CCCC2 | 610
Cc1ccc(N2CCN(C(=O)C3CCCN(c4nccc5sc(C)cc45)C3)CC2)cc1 (stereo not given) | 747
Cc1ccc(CNC(=O)c2c(C)sc3ccn(CC(C)C)c(=O)c23)o1 | 683
O=C(c1ccc(F)cc1F)N1CCC2(CC1)N=C(c1ccc(Cl)cc1)NO2 | 900
COc1cc(NC(=O)CSc2nccc(N3CCN(c4cc(C)ccc4C)CC3)n2)cc(OC)c1 | 673
CC(C)c1ccc(NC(=O)C2CC(=O)N(c3cccc(NC(=O)C4CCC4)c3)C2)cc1 (stereo not given) | 929
COc1ccccc1-c1nnc(-c2cccc(S(=O)(=O)N3CCOCC3)c2)o1 | 802
Cc1ccc(-c2cc3c(=O)n(CC(O)c4ccc(C)c(C)c4)ccn3n2)c(C)c1 (stereo not given) | 1080
Cc1sc(NC(=O)c2cccc(Cn3cc(Br)cn3)c2)nc1-c1ccccc1 | 1190
O=c1c2sccc2n(Cc2nc(-c3cccc(Br)c3)no2)c(=O)n1-c1ccccc1 | 1050
CC(C)c1ccc(S(=O)(=O)Nc2cnc(N3CCNCC3)c(C(=O)NCC3CCCO3)c2)cc1 (stereo not given) | 643
COc1ccccc1CNC(=O)Cn1c(=O)cc(-c2nc(C(C)C)no2)c2ccccc21 | 972
Cc1nn(C)c(=O)c2cc(S(=O)(=O)NCCC3=CCCCC3)cn12 | 966
Cc1cc(C)cc(NC(=O)N2CCC(N3CCN(Cc4ccccc4)C(=O)C3=O)CC2)c1 | 740
COc1ccc(Cl)cc1NC(=O)C1CCCN(S(=O)(=O)c2cc(-c3noc(C)n3)cs2)C1 (stereo not given) | 1080
CC(C)NC(=O)c1nc(N2CCSCC2)c2cnn(C)c2n1 | 705
COc1cc(NC(=O)N2CCC(N3CCN(Cc4ccc(F)cc4)C(=O)C3=O)CC2)cc(OC)c1 | 724
Cc1nc(N2CCC(C(=O)Nc3cc(F)ccc3F)CC2)c2c(C)c(C)oc2n1 | 972
O=C(NCCN1CCc2ccccc2C1)C1CCCN(c2ncnc3c2nc2n3CCCCC2)C1 (stereo not given) | 622
CC(C)(C)NC(=O)N1CCCN(C2CCN(Cc3ccccc3)C2=O)CC1 (stereo not given) | 618
Cc1ccccc1Oc1nccn2c(=O)n(CC(=O)Nc3cc(F)ccc3F)nc12 | 908
Cc1ccc(S(=O)(=O)N2CCC3(CC2)c2nccn2CCN3C)cc1F | 654

Structure (SMILES) | RP-LC retention time [s]
CCCNC(=O)C1CCCN(S(=O)(=O)c2cc(-c3noc(CC)n3)cs2)C1 (stereo not given) | 841
O=C(CCC1CCCN(C(=O)Nc2ccc(Cl)cc2)C1)NCc1ccccc1Cl (stereo not given) | 939
CCC(=O)N1CCc2cc(N3CC(C(=O)Nc4cccc(SC)c4)CC3=O)ccc21 (stereo not given) | 789
O=c1c2cc(-c3ccccc3)nn2ccn1Cc1noc(CN2CCCC2)n1 | 646
COCc1nc(CCNS(=O)(=O)Cc2ccccc2)no1 | 722
CCCn1cc(CCNC(=O)c2ccc(C)c(F)c2)c2cccnc21 | 815
Cc1ccsc1CN1CCc2[nH]nc(C(=O)N(C)C)c2C1 | 559
COc1ccc(N2CCN(Cc3nc(-c4ccc(N5CCCC(C)C5)nc4)no3)CC2)cc1 (stereo not given) | 1020
COCCN1C(=O)CS(=O)(=O)C12CCN(C(=O)C1(c3ccc(OC)cc3)CC1)CC2 | 661
CCOC(=O)Cn1c(C2CC(=O)N(c3cc(Cl)ccc3OC)C2)nc2ccccc21 (stereo not given) | 778
CCOc1ccccc1CNC(=O)CN1CCN(Cc2ccccc2)C1=O | 848
CCOc1ccc(S(=O)(=O)N(CC(=O)N2CCNCC2)CC2CCCN2CC)cc1 (stereo not given) | 585
Cc1ccc2c(=O)c(C(=O)N3CCCCC3)cn(CC(=O)Nc3ccccc3)c2n1 | 713
O=C(Nc1cccc(Cl)c1)C1CCN(S(=O)(=O)c2ccc3[nH]c(=O)ccc3c2)CC1 | 808
CN(C)c1ccc(-c2noc(CCC(=O)Nc3ccc4c(c3)OCCO4)n2)cc1 | 875
CC(C)c1ccc(-c2nc3ccccc3s2)cc1 | 958
CS(=O)(=O)CCC(C(=O)N1CCN(c2ccccn2)CC1)N1Cc2ccccc2C1=O (stereo not given) | 917
CCC(C)NC(=O)C1CCN(C2=NS(=O)(=O)C(c3ccc(OC)cc3)=C2C)CC1 (stereo not given) | 795
COc1cc(NC(=O)C2CCN(C(=O)c3ncn4c3COC(c3ccccc3)C4)CC2)cc(OC)c1 (stereo not given) | 846
CC(C)n1c(N2CCN(C(=O)C3CC(=O)N(CCc4ccccc4)C3)CC2)cc(=O)n(C(C)C)c1=O (stereo not given) | 786
O=C(NC1CCCCC1)C1CC(=O)N(c2ccc3c(c2)CCN3C(=O)C2CCC2)C1 (stereo not given) | 824
O=S(=O)(Cc1ccccc1)N1CCCCC1c1nc(C2CC2)n[nH]1 (stereo not given) | 758
CCN(C(=O)C1CCCN(c2ncnc3c2nc2n3CCCCC2)C1)c1ccccc1C (stereo not given) | 890
Cc1noc(-c2cc(=O)n(CC(=O)NCc3ccccc3F)c3ccccc23)n1 | 826
O=C(Nc1cc(F)ccc1F)N1CCC(N2CCN(Cc3ccc(F)cc3)C2=O)CC1 | 850
CC(C)CNC(=O)N1CCC(CCOc2cccnc2)CC1 | 605

Next, values leading:

RP-LC retention time [s] | Structure (SMILES)
906 | CCS(=O)(=O)N1CC(=O)N(c2ccc(Cl)cc2C)C(C)(C(=O)NCc2ccccc2)C1 (stereo not given)
626 | CCCNC(=O)C1CCN(c2ccc(SCC(=O)Nc3ccc4c(c3)OCCO4)nn2)CC1
629 | Cc1ccc(NC(=O)N2CCc3cn(C)c4cccc(c34)C2)cc1
1200 | CCOc1ccc(-c2nc(Cc3noc(-c4ccccc4)n3)c(C)o2)cc1
724 | COCCCNC(=O)c1cc(-c2ccc(OC)c(OC)c2)nc2n[nH]c(-c3ccc(OC)cc3)c12
930 | CSc1nc2ccc3nc(NC(=O)c4ccc([N+](=O)[O-])o4)sc3c2s1
806 | CCOc1ccc(C2C3=C(CCCC3=O)Nc3c2c(=O)n(C)c(=O)n3C)cc1OC (stereo not given)
629 | O=C(CSc1ccc(N2CCCC(C(=O)NC3CC3)C2)nn1)Nc1ccc(F)cc1 (stereo not given)
808 | CCCC(=O)Nc1ccc2c(c1)C(=O)CC(c1ccc3c(c1)OCO3)O2 (stereo not given)
652 | O=C(NCCc1ccccc1)N1CCC(OC2CCN(Cc3ccccc3)CC2)CC1
742 | CC(C)(C)c1noc(-c2ccc(-n3cnc(C(=O)N4CCCCC4)c3)nc2)n1
720 | O=C(Nc1ccccc1Cl)N1CCC(N2CC(F)(F)C[C@H]2COCC2CC2)CC1
836 | Cc1ccc(Cn2c(=O)n(CCNC(=O)C3CCCC3)c3ncccc32)cc1
1180 | COc1cc(C2CC(=O)c3c([nH]c(C(=O)OCC4CCCCC4)c3C)C2)cc(OC)c1OC (stereo not given)
762 | CCOc1ccc(CC(=O)N2C[C@@H]3C[C@H]2C[C@@H]3NC(=O)c2ccccc2)cc1
814 | CC(C)c1ccc(-c2noc(N3CCC(C(=O)N4CCN(C5CCCCC5)CC4)CC3)n2)cc1
918 | O=C(Nc1ccc(F)cc1F)c1c(O)c2cccnc2n(-c2cccc(F)c2)c1=O

RP-LC retention time [s] | Structure (SMILES)
724 | COc1ccc(Cl)cc1N1CC(c2nc(-c3ccccn3)no2)CC1=O (stereo not given)
1240 | CCOC(=O)c1ccc2nc(C(F)(F)F)nc(NCCc3ccc(OC)cc3)c2c1
894 | Cc1cc2nn(CC(=O)N3CCC(C)CC3)c(=O)n2c(-c2cccc(Cl)c2)n1
782 | O=C(CCn1cnc2cc(-c3noc(-c4cncc(Br)c4)n3)ccc21)N1CCCCC1
582 | O=C(NC1CCCC1)C1CCN(C(=O)c2cc(-c3ccncc3)n[nH]2)CC1
639 | Cc1ccc(C(CC(=O)NCCCN2CCCC2)N2Cc3ccccc3C2=O)cc1 (stereo not given)
1120 | Cn1nccc1-c1cccc(-c2noc(COc3ccc(Cl)cc3)n2)c1
739 | Cc1ccc(S(=O)(=O)N2CCC3(CC2)NCCN=C3NCc2ccccc2)c(C)c1
620 | Cc1nn(CC(=O)NCCCN2CCCC2)c(=O)c2nc(-c3ccccc3)sc12
744 | O=C(Cn1cnc2nc(N3CCCC(C(=O)NC4CC4)C3)sc2c1=O)Nc1ccc2c(c1)CCC2 (stereo not given)
948 | COc1cc(OC)cc(N2C=C(C#N)S(=O)(=O)c3ccc(C)cc32)c1
899 | O=C(Cn1ccn2nc(-c3ccc(F)cc3)c(CO)c2c1=O)N1CCCc2ccccc21
1010 | CCOC(=O)c1cc(C)nc2c1c(=O)n(Cc1cccc(F)c1)c(=O)n2C
791 | Cc1c(Cl)cccc1NC(=O)N1CCC(n2cnc3ccccc3c2=O)CC1
836 | COc1cccc(NC(=O)C2CCN(S(=O)(=O)c3ccc4c(c3)CCCN4C(C)=O)CC2)c1
991 | CN(C)S(=O)(=O)c1cc(-c2nnc(-c3ccc(F)cc3)o2)ccc1Cl
